Reference: patent publication US10858360B2, “Tricyclic gyrase inhibitors” (priority 2011, dated 2020)
Converted amounts (≈) assume the structure as drawn.

Tests used:
Format in all cases: cell-based
[1] = tested on: F. tularensis holarctica LVS; experiment: microbe, parasite or virus in culture; conditions: for MIC Ft: Ft = F. tularensis, strain not given; for MIC: Francisella tularensis, read-out: MIC Ft
S. aureus ATCC 13709 = experiment: MIC, S. aureus ATCC 13709 (Alamar Blue broth microdilution); conditions: for MIC: Staphylococcus aureus
[2] = tested on: B. thailandensis ATCC E264; experiment: microbe, parasite or virus in culture; conditions: for MIC: Burkholderia thailandensis, ATCCE264, read-out: MIC Bt
S. pneumoniae ATCC 51916 = experiment: MIC, S. pneumoniae ATCC 51916; conditions: for MIC: Streptococcus pneumoniae, ATCC51916, Spn = S. pneumoniae
Y. pestis CO92 pgm- = experiment: microbe, parasite or virus in culture; conditions: for MIC Yp: Yp = Y. pestis; for MIC: Yersinia pestis, CO92PGM, read-out: MIC Yp
E. coli ATCC 25922 = experiment: MIC, E. coli ATCC 25922; conditions: for MIC: Escherichia coli
A. baumannii ATCC 19606 = experiment: MIC, A. baumannii ATCC 19606; conditions: strain not given; for MIC: Acinetobacter baumannii, ATCC19606, Ab = A. baumannii
[3] = tested on: K. pneumoniae ATCC 700603; experiment: MIC, K. pneumoniae ATCC 700603; conditions: for MIC Kpn: Kpn = K. pneumoniae; for MIC: Klebsiella pneumoniae, ATCC700603, read-out: MIC Kpn
P. aeruginosa ATCC 15692 = experiment: MIC, P. aeruginosa ATCC 15692; conditions: for MIC: Pseudomonas aeruginosa, ATCC15692, Pa = P. aeruginosa
[4] = S. aureus, Alamar Blue read after overnight incubation at 35° C.
[5] = E. coli, Alamar Blue read after overnight incubation at 35° C.
[6] = ATCC13709, S. aureus, Alamar Blue read after overnight incubation at 35° C.
[7] = ATCC25922, E. coli, Alamar Blue read after overnight incubation at 35° C.
[8] = ATCC25922, Ec = E. coli, strain not given

| Compound | MIC Ft [1] [µg/mL] | MIC Sa (S. aureus ATCC 13709; [4]) [µg/mL] | MIC Sa (S. aureus ATCC 13709; Sa = S. aureus) [µg/mL] | MIC Bt [2] [µg/mL] | MIC Spn (S. pneumoniae ATCC 51916) [µg/mL] | MIC Yp (Y. pestis CO92 pgm-) [µg/mL] | MIC Ec (E. coli ATCC 25922; [5]) [µg/mL] | MIC Ec (E. coli ATCC 25922; Ec = E. coli, strain not given) [µg/mL] | MIC Ab (A. baumannii ATCC 19606) [µg/mL] | MIC Kpn [3] [µg/mL] | MIC Pa (P. aeruginosa ATCC 15692) [µg/mL] | further results |
| --- | --- | --- | --- | --- | --- | --- | --- | --- | --- | --- | --- | --- |
| CNc1cc(F)cc2c1[nH]c1nc(Oc3cnc(C)nc3)nc(N3C[C@H]4CCN[C@H]4C3)c12 [4.103] | 1 (≈ 2.3 µM) | ≤0.5 | ≤0.5 | ≤0.5 | ≤0.5 | ≤0.5 | ≤0.5 | ≤0.5 | ≤0.5 | 2 (≈ 4.6 µM) | 2 (≈ 4.6 µM) |  |
| CNc1cc(F)cc2c1[nH]c1nc(Oc3cnc(C)nc3)nc(N3CC(N)C4(CC4)C3)c12 (stereo not drawn) [4.069] | 2 (≈ 4.6 µM) |  | ≤0.5 | ≤0.5 | ≤0.5 | ≤0.5 |  | ≤0.5 | ≤0.5 | 2 (≈ 4.6 µM) | 4 (≈ 9.21 µM) |  |
| CNc1cc(F)cc2c1[nH]c1nc(Oc3cnc(C)nc3)nc(N3CCC4(CC4N)C3)c12 (stereo not drawn) [4.066] |  |  |  |  |  |  |  |  |  |  |  | MIC [1]: 1 µg/mL (≈ 2.3 µM); MIC (S. aureus ATCC 13709; [6]): ≤ 0.5 µg/mL; MIC (S. aureus ATCC 13709; ATCC13709, Sa = S. aureus): ≤ 0.5 µg/mL; MIC [2]: ≤ 0.5 µg/mL; MIC (S. pneumoniae ATCC 51916): ≤ 0.5 µg/mL; MIC (Y. pestis CO92 pgm-): ≤ 0.5 µg/mL; MIC (E. coli ATCC 25922; [7]): ≤ 0.5 µg/mL; MIC (E. coli ATCC 25922; [8]): ≤ 0.5 µg/mL; MIC (A. baumannii ATCC 19606): ≤ 0.5 µg/mL; MIC [3]: 2 µg/mL (≈ 4.6 µM); MIC (P. aeruginosa ATCC 15692): 2 µg/mL (≈ 4.6 µM) |
| CNc1cc(F)cc2c1[nH]c1nc(Oc3cnc(C)nc3)nc(N3CC4CCCNC4C3)c12 (stereo not drawn) [4.079] | 4 (≈ 8.92 µM) | ≤0.5 | ≤0.5 | 1 (≈ 2.23 µM) | ≤0.5 | ≤0.5 | ≤0.5 | ≤0.5 | ≤0.5 | 8 (≈ 17.8 µM) | 4 (≈ 8.92 µM) |  |
| CNc1cc(F)cc2c1[nH]c1nc(Oc3cnc(C)nc3)nc(N3CC4CC3C[C@@H]4N)c12 (stereo partly drawn) [4.131] | ≤0.5 | ≤0.5 | ≤0.5 | ≤0.5 | ≤0.5 | ≤0.5 | ≤0.5 | ≤0.5 | ≤0.5 | 2 (≈ 4.6 µM) | 1 (≈ 2.3 µM) |  |
| CNc1cc(F)cc2c1[nH]c1nc(Oc3cnc(C)nc3)nc(N3CC4(CCC4N)C3)c12 (stereo not drawn) [4.105] | 1 (≈ 2.3 µM) |  | ≤0.5 | ≤0.5 | ≤0.5 | ≤0.5 |  | ≤0.5 | ≤0.5 | 2 (≈ 4.6 µM) | 1 (≈ 2.3 µM) |  |
| CNc1cc(F)cc2c1[nH]c1nc(Oc3cnc(C)nc3)nc(N3CC4C(N)C4C3)c12 (stereo not drawn) [4.073] | 1 (≈ 2.38 µM) | ≤0.5 | ≤0.5 | ≤0.5 | ≤0.5 | ≤0.5 | ≤0.5 | ≤0.5 | ≤0.5 | 2 (≈ 4.76 µM) | 4 (≈ 9.51 µM) |  |
| CNc1cc(F)cc2c1[nH]c1nc(Oc3cnc(C)nc3)nc(N3CC4CC(N)C4C3)c12 (stereo not drawn) [4.084] | ≤0.5 | ≤0.5 | ≤0.5 | ≤0.5 | ≤0.5 | ≤0.5 | ≤0.5 | ≤0.5 | ≤0.5 | 4 (≈ 9.21 µM) | 1 (≈ 2.3 µM) |  |
| CNc1cc(F)cc2c1[nH]c1nc(Oc3cnc(C)nc3)nc(N3CCC4(CCC4N)C3)c12 (stereo not drawn) [4.117] | 1 (≈ 2.23 µM) | ≤0.5 | ≤0.5 | ≤0.5 | ≤0.5 | ≤0.5 | ≤0.5 | ≤0.5 | ≤0.5 | 2 (≈ 4.46 µM) | 1 (≈ 2.23 µM) |  |
| CNc1cc(F)cc2c1[nH]c1nc(Oc3cnc4cccnc4c3)nc(N3CC4(CCC4N)C3)c12 (stereo not drawn) [4.045] | 2 (≈ 4.25 µM) | ≤0.5 | ≤0.5 | 1 (≈ 2.13 µM) | ≤0.5 | ≤0.5 | ≤0.5 | ≤0.5 | ≤0.5 | 8 (≈ 17 µM) | 4 (≈ 8.5 µM) |  |
| CNc1cc(F)cc2c1[nH]c1nc(Oc3cnc4cccnc4c3)nc(N3CC4C(N)C4C3)c12 (stereo not drawn) [4.035] |  |  |  |  |  |  |  |  |  |  |  | MIC [1]: 1 µg/mL (≈ 2.19 µM); MIC (S. aureus ATCC 13709; [6]): ≤ 0.5 µg/mL; MIC (S. aureus ATCC 13709; ATCC13709, Sa = S. aureus): ≤ 0.5 µg/mL; MIC [2]: ≤ 0.5 µg/mL; MIC (S. pneumoniae ATCC 51916): ≤ 0.5 µg/mL; MIC (Y. pestis CO92 pgm-): ≤ 0.5 µg/mL; MIC (E. coli ATCC 25922; [7]): ≤ 0.5 µg/mL; MIC (E. coli ATCC 25922; [8]): ≤ 0.5 µg/mL; MIC (A. baumannii ATCC 19606): ≤ 0.5 µg/mL; MIC [3]: 2 µg/mL (≈ 4.38 µM); MIC (P. aeruginosa ATCC 15692): 4 µg/mL (≈ 8.76 µM) |
